Experimental data reported in ChEMBL document CHEMBL1136529, “Synthesis and SAR of cis-1-benzoyl-1,2,3,4-tetrahydroquinoline ligands for control of gene expression in ecdysone responsive systems” (Bioorg Med Chem Lett, 2003).

Experiments:
Type in all cases: functional
[1] = target: T1, Ecdysone receptor (Aedes aegypti) (UniProt P49880); test: Ratio of maximal ecdysone-dependent transactivation in cell line expressing Aedes aegypti ecdysone receptor compared to cpd2
T1 sequence (whole entry): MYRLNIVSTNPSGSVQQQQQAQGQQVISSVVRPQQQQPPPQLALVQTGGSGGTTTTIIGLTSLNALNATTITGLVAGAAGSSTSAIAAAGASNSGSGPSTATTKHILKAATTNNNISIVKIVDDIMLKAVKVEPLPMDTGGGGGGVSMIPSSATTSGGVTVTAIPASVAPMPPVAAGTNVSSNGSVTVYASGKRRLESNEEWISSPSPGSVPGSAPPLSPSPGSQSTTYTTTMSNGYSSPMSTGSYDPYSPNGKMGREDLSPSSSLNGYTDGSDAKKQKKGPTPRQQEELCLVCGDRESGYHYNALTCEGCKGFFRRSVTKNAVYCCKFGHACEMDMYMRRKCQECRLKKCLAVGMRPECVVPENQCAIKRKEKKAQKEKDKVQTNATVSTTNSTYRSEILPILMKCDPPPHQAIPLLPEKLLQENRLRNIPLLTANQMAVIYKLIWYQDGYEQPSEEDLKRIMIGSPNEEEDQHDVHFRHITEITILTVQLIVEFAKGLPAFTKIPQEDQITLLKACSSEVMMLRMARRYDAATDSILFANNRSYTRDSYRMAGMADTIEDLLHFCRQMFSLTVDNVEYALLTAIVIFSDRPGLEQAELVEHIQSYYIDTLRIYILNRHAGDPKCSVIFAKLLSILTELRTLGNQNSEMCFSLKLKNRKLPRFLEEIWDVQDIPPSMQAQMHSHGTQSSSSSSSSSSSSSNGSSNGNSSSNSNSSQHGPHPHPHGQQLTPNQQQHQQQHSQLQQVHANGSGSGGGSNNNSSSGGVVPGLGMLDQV

[2] = target: T1, Ecdysone receptor (Aedes aegypti); test: Fold induction of ecdysone-dependent transactivation in mammalian cell line expressing Aedes aegypti ecdysone receptor at 33 uM
Ecdysone receptor = target: T2, Ecdysone receptor (Aedes aegypti, UniProt P49880); test: Effective concentration for ecdysone-dependent transactivation in mammalian cell line expressing Aedes aegypti ecdysone receptor
T2 sequence (P49880 whole entry): T1 sequence (whole entry)

With `C[C@@H]1C[C@H](Nc2ccc(F)cc2)c2cc(F)ccc2N1C(=O)c1cccc(F)c1` the Rel Max FI [1] was 0.57, the Fold induction [2] was 204 and the EC50 (Ecdysone receptor) was 990 nM.
`COc1ccccc1C(=O)N1c2ccc(F)cc2[C@@H](Nc2ccc(F)cc2)C[C@H]1C` was tested, and the Rel Max FI [1] was 0.01, the Fold induction [2] was 4 and the EC50 (Ecdysone receptor) was over 33300 nM.
In the case of `C[C@@H]1C[C@H](Nc2ccccc2)c2ccccc2N1C(=O)c1ccc(C(F)(F)F)cc1`, the Rel Max FI [1] is reported as 0.64, the Fold induction [2] is reported as 89 and the EC50 (Ecdysone receptor) is reported as 1180 nM.
`C[C@@H]1C[C@H](Nc2ccccc2)c2ccccc2N1C(=O)c1ccc(Cl)cc1` showed a Rel Max FI [1] of 0.43, a Fold induction [2] of 130 and an EC50 (Ecdysone receptor) of 980 nM.
`C[C@@H]1C[C@H](Nc2ccc(F)cc2)c2cc(F)ccc2N1C(=O)c1ccc(C(F)(F)F)cc1` showed a Rel Max FI [1] of 0.63, a Fold induction [2] of 230 and an EC50 (Ecdysone receptor) of 920 nM.
In the case of `COc1ccc(C(=O)N2c3ccccc3[C@@H](Nc3ccccc3)C[C@H]2C)cc1`, the Rel Max FI [1] is reported as 0.44, the Fold induction [2] is reported as 64 and the EC50 (Ecdysone receptor) is reported as 1430 nM.
`COc1cccc(C(=O)N2c3ccc(F)cc3[C@@H](Nc3ccc(F)cc3)C[C@H]2C)c1` was tested, and the Rel Max FI [1] was 0.98, the Fold induction [2] was 119 and the EC50 (Ecdysone receptor) was 1480 nM.
With `C[C@@H]1C[C@H](Nc2ccccc2)c2ccccc2N1C(=O)c1ccccc1` the Rel Max FI [1] was 0.07, the Fold induction [2] was 20 and the EC50 (Ecdysone receptor) was 1120 nM.
Work on `Cc1ccc(N[C@H]2C[C@@H](C)N(C(=O)c3cccc(C(F)(F)F)c3)c3ccc(C)cc32)cc1` yielded a Rel Max FI [1] of 0.47, a Fold induction [2] of 12 and an EC50 (Ecdysone receptor) of 1840 nM.
`COc1ccccc1C(=O)N1c2ccc(C)cc2[C@@H](Nc2ccc(C)cc2)C[C@H]1C` was tested, and the Fold induction [2] was 0.
`C[C@@H]1C[C@H](Nc2ccccc2)c2ccccc2N1C(=O)c1cccc(F)c1` was tested, and the Rel Max FI [1] was 0.44, the Fold induction [2] was 75 and the EC50 (Ecdysone receptor) was 750 nM.
For `Cc1ccc(N[C@H]2C[C@@H](C)N(C(=O)c3ccc(C(F)(F)F)cc3)c3ccc(C)cc32)cc1`, the Rel Max FI [1] was 0.23, the Fold induction [2] was 69 and the EC50 (Ecdysone receptor) was 4410 nM.
`C[C@@H]1C[C@H](Nc2ccc(F)cc2)c2cc(F)ccc2N1C(=O)c1ccccc1F` gave a Rel Max FI [1] of 0.28, a Fold induction [2] of 78 and an EC50 (Ecdysone receptor) of 3000 nM.
For `Cc1ccc(N[C@H]2C[C@@H](C)N(C(=O)c3ccccc3)c3ccc(C)cc32)cc1`, the Rel Max FI [1] was 0.19, the Fold induction [2] was 35 and the EC50 (Ecdysone receptor) was 5400 nM.
`C[C@@H]1C[C@H](Nc2ccccc2)c2ccccc2N1C(=O)c1ccccc1C(F)(F)F` gave a Fold induction [2] of 1.
For `Cc1ccc(N[C@H]2C[C@@H](C)N(C(=O)c3cccc(F)c3)c3ccc(C)cc32)cc1`, the Rel Max FI [1] was 0.27, the Fold induction [2] was 102 and the EC50 (Ecdysone receptor) was 3000 nM.
For `C[C@@H]1C[C@H](Nc2ccc(F)cc2)c2cc(F)ccc2N1C(=O)c1ccccc1C(F)(F)F`, the Rel Max FI [1] was 0.32, the Fold induction [2] was 64 and the EC50 (Ecdysone receptor) was 11000 nM.
Compound `CCc1c(OC)cccc1C(=O)NN(C(=O)c1cc(C)cc(C)c1)C(C)(C)C` has an EC50 (Ecdysone receptor) of 440 nM.
`Cc1ccc(N[C@H]2C[C@@H](C)N(C(=O)c3ccc(C)cc3)c3ccc(C)cc32)cc1` gave a Rel Max FI [1] of 0.26, a Fold induction [2] of 121 and an EC50 (Ecdysone receptor) of 5000 nM.
`COc1cccc(C(=O)N2c3ccc(C)cc3[C@@H](Nc3ccc(C)cc3)C[C@H]2C)c1` gave a Rel Max FI [1] of 0.01, a Fold induction [2] of 3 and an EC50 (Ecdysone receptor) of over 33300 nM.
With `Cc1ccc(C(=O)N2c3ccccc3[C@@H](Nc3ccccc3)C[C@H]2C)cc1` the Rel Max FI [1] was 0.42, the Fold induction [2] was 64 and the EC50 (Ecdysone receptor) was 990 nM.
`COc1cccc(C(=O)N2c3ccccc3[C@@H](Nc3ccccc3)C[C@H]2C)c1` showed a Rel Max FI [1] of 0.15, a Fold induction [2] of 9 and an EC50 (Ecdysone receptor) of 700 nM.
`Cc1ccccc1C(=O)N1c2ccc(F)cc2[C@@H](Nc2ccc(F)cc2)C[C@H]1C` showed a Rel Max FI [1] of 0.5, a Fold induction [2] of 158 and an EC50 (Ecdysone receptor) of 3190 nM.
In the case of `Cc1ccc(N[C@H]2C[C@@H](C)N(C(=O)c3ccc(Cl)cc3)c3ccc(C)cc32)cc1`, the Rel Max FI [1] is reported as 0.39, the Fold induction [2] is reported as 43 and the EC50 (Ecdysone receptor) is reported as 2150 nM.
`Cc1ccc(C(=O)N2c3ccc(F)cc3[C@@H](Nc3ccc(F)cc3)C[C@H]2C)cc1` showed a Rel Max FI [1] of 0.67, a Fold induction [2] of 91 and an EC50 (Ecdysone receptor) of 870 nM.
`Cc1ccc(N[C@H]2C[C@@H](C)N(C(=O)c3ccccc3C)c3ccc(C)cc32)cc1` showed a Rel Max FI [1] of 0.04, a Fold induction [2] of 19 and an EC50 (Ecdysone receptor) of 8710 nM.
For `Cc1ccc(N[C@H]2C[C@@H](C)N(C(=O)c3ccccc3C(F)(F)F)c3ccc(C)cc32)cc1`, the Rel Max FI [1] was 0.04, the Fold induction [2] was 12 and the EC50 (Ecdysone receptor) was over 33300 nM.
`C[C@@H]1C[C@H](Nc2ccc(F)cc2)c2cc(F)ccc2N1C(=O)c1cccc(C(F)(F)F)c1` gave a Rel Max FI [1] of 0.93, a Fold induction [2] of 89 and an EC50 (Ecdysone receptor) of 1000 nM.
In the case of `COc1ccc(C(=O)N2c3ccc(F)cc3[C@@H](Nc3ccc(F)cc3)C[C@H]2C)cc1`, the Rel Max FI [1] is reported as 0.87, the Fold induction [2] is reported as 110 and the EC50 (Ecdysone receptor) is reported as 1140 nM.
With `Cc1cccc(C(=O)N2c3ccc(F)cc3[C@@H](Nc3ccc(F)cc3)C[C@H]2C)c1` the Rel Max FI [1] was 0.55, the Fold induction [2] was 686 and the EC50 (Ecdysone receptor) was 1360 nM.
`Cc1ccc(N[C@H]2C[C@@H](C)N(C(=O)c3cccc(C)c3)c3ccc(C)cc32)cc1` was tested, and the Rel Max FI [1] was 0.01, the Fold induction [2] was 6 and the EC50 (Ecdysone receptor) was over 33300 nM.
With `C[C@@H]1C[C@H](Nc2ccc(F)cc2)c2cc(F)ccc2N1C(=O)c1ccc(Cl)cc1` the Rel Max FI [1] was 0.7, the Fold induction [2] was 212 and the EC50 (Ecdysone receptor) was 640 nM.
`COc1ccc(C(=O)N2c3ccc(C)cc3[C@@H](Nc3ccc(C)cc3)C[C@H]2C)cc1` was tested, and the Rel Max FI [1] was 0.09, the Fold induction [2] was 57 and the EC50 (Ecdysone receptor) was 5320 nM.
`C[C@@H]1C[C@H](Nc2ccc(F)cc2)c2cc(F)ccc2N1C(=O)c1ccccc1` gave a Rel Max FI [1] of 0.76, a Fold induction [2] of 283 and an EC50 (Ecdysone receptor) of 1730 nM.
`Cc1ccc(N[C@H]2C[C@@H](C)N(C(=O)c3ccccc3F)c3ccc(C)cc32)cc1` showed a Rel Max FI [1] of 0.01, a Fold induction [2] of 5 and an EC50 (Ecdysone receptor) of over 33300 nM.
Work on `C[C@@H]1C[C@H](Nc2ccccc2)c2ccccc2N1C(=O)c1cccc(C(F)(F)F)c1` yielded a Rel Max FI [1] of 0.42, a Fold induction [2] of 28 and an EC50 (Ecdysone receptor) of 1210 nM.
